These results are taken from PMC10661773, “Cytotoxic pathways activated by multifunctional thiosemicarbazones targeting sigma-2 receptors in breast and lung carcinoma cells” (Pharmacological Reports, 2023).

In data set [1] the test system is BEAS-2B. Kind of data set: Cell viability, MTT assay at 48 h. The class given is cell-based. Particulars: Homo sapiens, read-out: EC50 ± SEM, normal cells BEAS-2B. The method, then: (§1) Human MCF7 breast adenocarcinoma (#HTB-22) and human A549 carcinoma (#CCL-85) cell lines, non-tumor human breast (MCF10A, #CRL-10317) and lung (BEAS-2B, #CRL-9482) cells were obtained from American Type Culture Collection (ATCC, Bethesda, MD). MCF7 cells were cultured in DMEM medium (Gibco Thermo Scientific, Waltham, MA; #10,565,018), A549 in HAM’s F12 medium (Gibco Thermo Scientific; #11,765,054), and BEAS-2B in RPMI-1640 medium (Gibco Thermo Scientific; # 61,870,010), all supplemented with 10% v/v fetal bovine serum (FBS; Sigma, St. Louis, MO; #F4135) and 1% v/v penicillin–streptomycin (Sigma; #P4458). MCF10A cells were cultured in DMEM/F12 medium (Gibco Thermo Scientific; #31,331,028) supplemented with 5% v/v horse serum (Sigma; #H1270) and 1% v/v penicillin–streptomycin, 20 ng/mL epidermal growth factor (Sigma, #E4127), 10 µg/mL insulin (Sigma, #I3536), […] hydrocortisone (Sigma, #H0888), 100 ng/mL cholera toxin (Sigma, #C8052). Cells were kept in a humidified incubator at 37 °C with 5% CO2.
(§2) Cell growth was determined using the MTT assay at 48 h. On day 1, 25,000 cells/well were seeded into 96-well plates in a volume of 100 μL. On day 2, the various drug concentrations (1 μM–100 μM) were added. In all experiments, the various drug solvents (EtOH, Sigma, # E7148; DMSO, Sigma, # D8418) were added to each control to evaluate possible cytotoxicity of the solvent. After the established incubation time with drugs (48 h), MTT (0.5 mg/mL, Sigma # M2003) was added to each well, and after 3–4 h incubation at 37 °C, the supernatant was removed. Formazan crystals were solubilized using 100 μl of DMSO/EtOH (1:1) and absorbance values at 570 and 630 nm were determined on the microplate reader Victor 3 from PerkinElmer Life Sciences (Waltham, MA).
(In general: Tetrazolium dyes change colour on reduction, which living cells bring about.)

In data set [2] the test system is MCF10A. Briefly: Cell viability, MTT assay at 48 h. The format is cell-based. Particulars: Homo sapiens, MCF-10A, read-out: EC50 ± SEM, normal cells MCF10A. The method, then:
as §1, §2

Data set [3] relates to caspase 9 in MCF7 cells. Briefly: Caspase 9 activity, fluorimetric. The class given is cell-based, human. Particulars: MCF7, 2 h, 50 µM. The method, then:
Activation of caspase 3, caspase 7 and caspase 9 was measured using the Caspase 3/7 Fluorescence Assay kit (Cayman Chemical, Ann Arbor, MI; #10,009,135) and the Caspase 9 fluorimetric assay kit (Enzo Life Science, Roma, Italy; #ALX-850-224). The results were expressed as nmoles of the hydrolyzed substrate of each caspase/mg cellular proteins, according to a previously set titration curve.

Data set [4] deals with GRP78, ATF6, IRE1, PERK in MCF7 cells. Briefly: ER stress markers, qRT-PCR and immunoblotting. The format is cell-based, human. Particulars: MCF7, 2 h, 50 µM. The method, then:
1 μg total RNA was reverse-transcribed using the iScript Reverse Transcription Supermix kit (Bio-Rad Laboratories, Hercules, CA; #1,708,840), according to the manufacturer’s instruction. 25 ng cDNA were amplified with 10 μL IQ™ SYBR Green Supermix (Bio-Rad Laboratories, # 1708880B05). Primers were designed with the qPrimer Depot software (http://primerdepot.nci.nih.gov/). qRT-PCR was carried out with a CFX96™ Real-Time Detector System (Bio-Rad Laboratories). Cycling conditions were: 30 s at 95 °C, followed by 40 cycles of denaturation (15 s at 95 °C), annealing/extension (30 s at 60 °C). The same cDNA preparation was used to quantify the genes of interest and the housekeeping gene S14, used to normalize gene expression. The relative quantitation of each sample was carried out using the Gene Expression Quantitation software (Bio-Rad Laboratories). Results were expressed in arbitrary units. For each gene, the expression in untreated cells was assumed to be “1”.
Cells were rinsed with ice-cold lysis buffer (50 mM, Tris, 10 mM EDTA, 1% v/v Triton-X100), supplemented with the protease inhibitor cocktail set III (80 μM aprotinin, 5 mM bestatin, 1.5 mM leupeptin, 1 mM pepstatin; Sigma, # 535,140), 2 mM phenylmethylsulfonyl fluoride (Sigma: #P7626) and 1 mM Na3VO4, (Sigma; #S6508) then sonicated and centrifuged at 13,000 × g for 10 min at 4 °C. 20 μg protein extracts were subjected to SDS–PAGE and probed with the antibodies for: GRP78 (#ab21685), ATF6 (#ab122897), IRE-1 (#ab37073), PERK (#ab65142), actin (#ab1801) (all from Abcam, Cambridge, UK), followed by a peroxidase-conjugated secondary antibody (Bio-Rad Laboratories). The membranes were washed with Tris-buffered saline-Tween 0.1% v/v solution, and the proteins were detected by enhanced chemiluminescence (Bio-Rad Laboratories, #1,705,061). The densitometric analysis was performed using the ImageJ software (https://imagej.nih.gov/), calculating the ratio protein of interest/actin band density, putting actin band density as 1 relative unit in each condition. Densitometric analysis and whole blots are included as Supporting Information.
A general note: In qPCR the cycle at which signal appears reflects the starting amount.

Data set [5] relates to MCF7 and A549 cells. Kind of data set: Whole cell ROS, DCFDA-AM probe. The class given is cell-based, human. As to conditions: MCF7 and A549, 2 h, 50 µM. The method, then: (§3) Intramitochondrial reactive oxygen species (ROS) were measured using the MitoSOX fluorescent probe (Invitrogen ThermoScientific, # M36008), according to the manufacturer’s instructions. For total ROS, cells were incubated with 5 µmol/L of 5-(and-6)-chlorometyl-20,70-dichlorodihydro-fluorescein diacetate-acetoxymethyl ester (DCFDA-AM, Sigma, #21,884), as described by Riganti et al. 2015 [21]. The results are expressed as nmoles/mg mitochondrial or cellular proteins, respectively.

Data set [6] concerns A549 cells. Briefly: Mitochondrial depolarization, JC-1 staining. The class given is cell-based, human. Particulars: A549, 2 h, 50 µM. The method, then:
(§4) Staining with the JC-1 fluorescent probe (Biotium Inc., Freemont, CA; #30,001-30001-T) was performed as described in Riganti et al. 2015 [21]. Fluorescence units were used to calculate the percentage of green-fluorescent (i.e., depolarized) mitochondria vs red-fluorescent (i.e., polarized) mitochondria.

The subject of data set [7] is MCF7 cells. Kind of data set: Mitochondrial depolarization, JC-1 staining. The format is cell-based, human. Particulars: MCF7, 2 h, 50 µM. The method, then:
as §4

Data set [8] deals with MCF7. Details: method as in doi:10.1039/C5RA19857G. Particulars: MTT; read-out: EC50, tumor cells MCF7; cited from earlier work.
Data set [9] concerns A549. More on the design: method as in doi:10.1039/C5RA19857G. As to conditions: MTT; read-out: EC50, tumor cells A549; cited from earlier work.
In data set [10] the target is sigma-2 receptors (Homo sapiens, UniProt Q5BJF2). Particulars: read-out: Sigma-2 Affinity Ki; cited from earlier work.
The target in data set [11] is T1, P-gp (Homo sapiens, UniProt P08183).
T1 construct: expressed in transfected cells; host or cells: MDCK-MDR1
Particulars: cited from earlier work.

Data set [12] has as its system A549. Kind of data set: Cell viability, MTT assay at 48 h. The format is cell-based. Particulars: Homo sapiens, A549, 48 h, read-out: EC50 ± SEM, tumor cells A549. The method, then:
as §1, §2

Data set [13] deals with MCF7. Briefly: Cell viability, MTT assay at 48 h. Particulars: Homo sapiens, MCF7, 48 h, read-out: EC50 ± SEM, tumor cells MCF7. The format is cell-based. The method, then: as §1, §2
Data set [14] concerns A549 cells. Kind of data set: Mitochondrial ROS, MitoSOX staining. The format is cell-based, human. As to conditions: A549, 2 h, 50 µM. The method, then: as §3
The test system of data set [15] is MCF7 cells. Briefly: Mitochondrial ROS, MitoSOX staining. As to conditions: MCF7, 2 h, 50 µM. The format is cell-based, human. The method, then: as §3

Structures are written as SMILES. Where two headings read alike, the source gives them in different places.

Chain of sigma-2 receptors (Q5BJF2 whole entry): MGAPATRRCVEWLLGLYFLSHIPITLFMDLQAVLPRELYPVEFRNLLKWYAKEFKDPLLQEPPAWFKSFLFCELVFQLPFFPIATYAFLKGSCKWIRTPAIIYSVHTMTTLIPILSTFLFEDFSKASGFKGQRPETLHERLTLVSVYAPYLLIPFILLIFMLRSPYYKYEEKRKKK
T1 sequence (P08183 whole entry): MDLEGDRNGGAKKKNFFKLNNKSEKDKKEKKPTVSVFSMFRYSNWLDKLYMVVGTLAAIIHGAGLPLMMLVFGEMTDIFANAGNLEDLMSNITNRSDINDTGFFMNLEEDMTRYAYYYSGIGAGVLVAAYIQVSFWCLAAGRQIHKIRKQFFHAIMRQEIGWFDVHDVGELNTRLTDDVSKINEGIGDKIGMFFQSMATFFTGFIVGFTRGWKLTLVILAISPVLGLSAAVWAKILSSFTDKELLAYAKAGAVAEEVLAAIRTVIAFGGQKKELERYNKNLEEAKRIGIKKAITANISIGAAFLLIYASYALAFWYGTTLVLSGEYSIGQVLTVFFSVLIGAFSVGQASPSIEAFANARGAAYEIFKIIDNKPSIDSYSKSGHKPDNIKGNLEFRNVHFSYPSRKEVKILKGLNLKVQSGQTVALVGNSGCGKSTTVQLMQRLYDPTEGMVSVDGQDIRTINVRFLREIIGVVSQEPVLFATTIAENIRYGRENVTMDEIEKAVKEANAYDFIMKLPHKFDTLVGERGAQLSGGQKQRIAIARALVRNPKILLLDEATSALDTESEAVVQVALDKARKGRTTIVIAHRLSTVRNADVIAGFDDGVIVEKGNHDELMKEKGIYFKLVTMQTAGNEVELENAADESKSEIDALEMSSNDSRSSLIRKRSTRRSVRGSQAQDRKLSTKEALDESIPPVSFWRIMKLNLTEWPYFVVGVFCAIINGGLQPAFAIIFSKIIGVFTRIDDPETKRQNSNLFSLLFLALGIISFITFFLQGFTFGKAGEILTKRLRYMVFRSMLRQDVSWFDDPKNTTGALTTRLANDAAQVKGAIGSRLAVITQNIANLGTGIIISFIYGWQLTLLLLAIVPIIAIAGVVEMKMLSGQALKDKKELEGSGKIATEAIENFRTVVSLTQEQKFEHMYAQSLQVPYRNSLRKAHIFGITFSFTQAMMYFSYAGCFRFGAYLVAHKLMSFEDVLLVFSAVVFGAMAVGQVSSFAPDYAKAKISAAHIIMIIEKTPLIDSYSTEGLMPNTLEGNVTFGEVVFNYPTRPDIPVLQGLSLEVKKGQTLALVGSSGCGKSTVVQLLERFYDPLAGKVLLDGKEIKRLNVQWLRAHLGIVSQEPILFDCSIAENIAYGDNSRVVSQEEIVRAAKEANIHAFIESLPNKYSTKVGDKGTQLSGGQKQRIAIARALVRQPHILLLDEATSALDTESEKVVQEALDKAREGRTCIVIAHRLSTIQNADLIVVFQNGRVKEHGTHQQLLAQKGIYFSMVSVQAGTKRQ

The EC50 is the concentration needed to bring the measured effect to its halfway point. A word on the Ki: it is a dissociation constant, usually derived from enzyme kinetics or from competition with a known ligand. Take `CN(C)C(=S)N/N=C1\C(=O)N(CCCCN2CCN(C3CCCCC3)CC2)c2ccccc21` [PS3, (Z)-2-[1-[4-(4-cyclohexylpiperazin-1-yl)butyl]-2-oxoindolin-3-ylidene]-N,N-dimethylhydrazinecarbothioamide]: the EC50 in data set [1] is 6.22 ± 1.3 µM; in data set [2], 3.03 ± 0.6 µM; in data set [8], 1.81 µM; in data set [9] it was 2.2 µM; in [11], 2.83 µM. Besides, the “Rank order of caspase 9 activation” value in data set [3] is “FA4 > MLP44 > PS3 > ACThio1”. Besides, in data set [4], the “Expression of ER stress markers GRP78, ATF6, IRE1, PERK” value (shortened to “Expression of ER stress markers GRP78”) was “modest effects”. In addition, the “ROS levels in whole cells (DCFDA-AM)” value in data set [5] was “not significantly increased”. The “Mitochondrial depolarization (JC-1 staining)” value (shortened to “Mitochondrial depolarization”) in [6] and in data set [7] was “did not produce any detectable changes in mitochondrial polarization” in each case. In [10], the Ki was 0.0354 µM.
Regarding `CN(C)C(=S)N/N=C1\C(=O)Nc2ccccc21` [ACThio1, (Z)-N,N-dimethyl-2-(2-oxoindolin-3-ylidene)hydrazinecarbothioamide], the EC50 in data set [12] worked out at 4.08 ± 0.4 µM; in [1] it was 3.39 ± 0.8 µM; in data set [2] it was 2.09 ± 0.4 µM; in data set [13], 5.88 ± 1.1 µM. For the same compound, the “Rank order of caspase 9 activation” value in [3] is “FA4 > MLP44 > PS3 > ACThio1”. In data set [4], the “Expression of ER stress markers GRP78” value was “no or negligible effect”. For the same compound, the “ROS levels in whole cells (DCFDA-AM)” value in data set [5] is “not significantly increased”. Further, the “Mitochondrial depolarization” value in [6] and in data set [7] was “did not produce any detectable changes in mitochondrial polarization” each time. Moreover, the Ki in data set [10] was above 10 µM. Further, the “P-gp Activity EC50” value in data set [11] is listed as “Not Active^d”.
`COc1cc2c(cc1OC)CN(CCCCN1C(=O)/C(=N\NC(=S)N(C)C)c3ccccc31)CC2` [MLP44, (Z)-2-(1-(4-(6,7-Dimethoxy-3,4-dihydroisoquinolin-2(1H)-yl)butyl)-2-oxoindolin-3-ylidene)-N,N-dimethylhydrazinecarbothioamide]: the EC50 was 11.9 ± 2.1 µM in data set [1]; 24.2 ± 0.8 µM in [2]; 24.6 µM in [8]; 10.4 µM in data set [9]; 3.04 µM in data set [11]. For the same compound, the “Rank order of caspase 9 activation” value in data set [3] was “FA4 > MLP44 > PS3 > ACThio1”. Further, the “Expression of ER stress markers GRP78” value in data set [4] is “modest effects”. For the same compound, the “Mitochondrial ROS (MitoSOX)” value in data set [14] and in [15] was “increased” in each case. Further, the “ROS levels in whole cells (DCFDA-AM)” value in data set [5] is “variable”. The “Mitochondrial depolarization” value in [6] is reported as “totally insensitive”; in data set [7], “strong depolarization”. The Ki in data set [10] was 0.0341 µM.
